Series [1] can be described thus: Microsomal stability, mouse liver microsomes. Format: in vitro ADME.
A further series has as its system HRV. Briefly: Rhinovirus antiviral assay (EC50). The format is cell-based. Conditions: Human rhinovirus sp.
The next series concerns EV68. Briefly: EV68 antiviral assay (EC50). Format: cell-based.
A short description of series [2]: Microsomal stability, human liver microsomes. Format: in vitro ADME. Background: Liver microsomes are vesicles of endoplasmic reticulum, rich in cytochrome P450 enzymes.
For another series, the system named is EV71. The experiment in a line: EV71 antiviral assay (EC50). The format is cell-based, Enterovirus 71. Conditions: Enterovirus A, EV71.
In a further series the test system is HCV. The experiment in a line: Anti-HCV assay (EC50). The format is cell-based. Conditions: Hepatitis C virus, read-out: HCV EC50. On the procedure: Anti-HCV assay: Anti-HCV assays are performed as described by Cho et al. “Identification of a class of HCV inhibitors directed against the nonstructural protein NS4B.” Sci. Transl. Med. 2011; 2(15):15ra6.
Series [3] is described as follows: Cell toxicity (CC50) in EV68 assay. Conditions: EV68 CC50.
The test system of the next series is cells (EV68 assay). The experiment in a line: Cell toxicity (CC50) in EV68 assay.
In another series the target is T1, PI4KIIIbeta (Bos taurus, UniProt O02810).
T1 construct: made in house; host or cells: COS-7 cells, transient transfection, anti-HA immunoprecipitate on protein G Sepharose beads
T1 sequence (O02810 whole entry): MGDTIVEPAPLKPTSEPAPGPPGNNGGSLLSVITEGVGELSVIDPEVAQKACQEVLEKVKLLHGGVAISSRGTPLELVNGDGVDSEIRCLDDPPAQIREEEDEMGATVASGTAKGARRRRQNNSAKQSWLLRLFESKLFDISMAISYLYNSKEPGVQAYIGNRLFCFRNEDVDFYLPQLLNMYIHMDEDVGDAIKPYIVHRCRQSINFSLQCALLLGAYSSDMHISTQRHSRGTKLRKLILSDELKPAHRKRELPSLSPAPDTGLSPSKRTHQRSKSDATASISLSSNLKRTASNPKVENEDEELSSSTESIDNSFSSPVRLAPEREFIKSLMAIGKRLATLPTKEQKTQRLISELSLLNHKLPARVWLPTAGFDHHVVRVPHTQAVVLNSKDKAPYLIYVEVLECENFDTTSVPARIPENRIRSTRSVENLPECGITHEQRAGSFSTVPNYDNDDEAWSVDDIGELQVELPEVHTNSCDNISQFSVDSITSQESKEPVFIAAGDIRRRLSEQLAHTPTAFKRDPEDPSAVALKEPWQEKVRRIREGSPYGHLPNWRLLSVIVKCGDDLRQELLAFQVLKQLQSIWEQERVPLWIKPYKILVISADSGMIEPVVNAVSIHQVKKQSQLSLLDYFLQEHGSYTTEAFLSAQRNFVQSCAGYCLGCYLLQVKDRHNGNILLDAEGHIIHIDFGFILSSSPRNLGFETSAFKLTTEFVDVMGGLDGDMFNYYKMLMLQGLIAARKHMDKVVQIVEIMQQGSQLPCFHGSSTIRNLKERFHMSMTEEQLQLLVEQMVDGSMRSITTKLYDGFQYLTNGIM
Briefly: PI-kinase assay, PI4KIIIbeta (Table 4). Format: biochemical, bovine. The protocol:
(§1) PI-kinase assay: Compounds are tested in C.1.1. PT kinase assays as described by Shokat et al., “A membrane capture assay for lipid kinase activity.” Nat. Protoc. 2007; 2(10):2459-66.
(§2) General methods of materials: In the assays described here, p110α-p85 complex and p110γ were acquired from Millipore. Assays were performed with La-phosphatidylinositol (Avanti) as described in Knight et al. Nat Protoc. 2007; 2 (10):2459-66. Inhibitor series were prepared 10% DMSO as 5× stocks for the assay. Assays of HsVps34 were performed as described in Knight et al, except that the final assay buffer composition used was changed to 20 mM HEPES 7.5, 100 mM NaCl, 3 mM MgCl, 1 mg/mL PI and 44 nM hvps34 was used in the assay. […] COS-7 cells were cultured in 10 cm dishes and transfected at 70% confluence with 10 μg of plasmid DNA (HA-tagged bovine PI4KIIIβ. HA-tagged human PI4KIIIα) using Lipofectamine 2000 and 5 ml Opti-MEM following the manufacturer's instructions. After 5 hours the transfection medium was replaced with 10 ml complete DMEM. 36 hrs post transfection, cells were washed once with 5 ml PBS (pH 7.4) and lysed in 1 ml of lysis buffer (1) on ice. Lysates were collected by scraping and after 15 min they were centrifuged at 13.000 rpm for 10 min. To the lysates was added 200 gi of protein G Sepharose 4 fast flow beads that were prewashed with PBS and lysis buffer and 2 sg of anti-HA antibody. The tubes were then incubated overnight at 4 degrees C. in a tube rotator. The Sepharose beads in the lysate were washed twice with 150 mM NaCl in RIPA buffer, twice with RIPA buffer and once with kinase buffer (50 mM Tris/HCl, pH 7.5, 20 mM MgCl2, 1 mM EFTA, 1 mM PtdIns, 0.4% Triton X-100, 0.5 mg/mL BSA) and finally the beads were resuspended in 200 μL kinase buffer. Kinase reactions were run in a mixture of 45 μL of PI buffer (1 mM P1 in kinase buffer), 10 μL of immunoprecipitated beads, 2 µL of inhibitors (dissolved and diluted in DMSO) or DMSO and 5 μL of [γ-^32P]-ATP (1 mM and 2 μCi/tube). The immunoprecipitates in PI buffer were pre-incubated with the drugs for 20 min prior the initiation of kinase reaction by adding ATP and the reactions were carried out for 30 min in 15 ml polyproplyene tubes. Reactions were terminated by addition of 3 ml of CHCl3:CH3OH:HCl (200:100:0.75) followed by 0.6 ml of 0.61N HCl to induce phase separation. The mixtures were vortexed, centrifuged at 2000 rpm for 2 min and the upper phase was discarded. To the lower phase was added 1.5 ml of CHCl3:CH3OH:0.6N HCl (3:48:47) and the mixture vortexed and centrifuged at 2000 rpm for 2 ruin. The lower phase was then transferred to counting vials and evaporated. Samples were counted in a scintillation beta counter after adding 5 ml of Instafluor (Perkin-Elmer).
(§3) Selected compounds of Tables 1-3 were prepared and tested for inhibition activity in a variety of kinase assays.

For series [4], the system named is JC virus (Polyomaviridae). The experiment in a line: JC virus antiviral assay (EC50). Format: cell-based. Conditions: JC polyomavirus.
Series [5] can be described thus: Cell toxicity (CC50) in EV71 assay. Conditions: EV71 CC50.
The test system of the next series is cells (EV71 assay). The experiment in a line: Cell toxicity (CC50) in EV71 assay.
Series [6] concerns Human HPV (Papillomaviridae). Briefly: Human HPV antiviral assay (EC50). Format: cell-based, human papilloma virus. Conditions: Human papillomavirus, read-out: Human HPV (Papillomaviridae) EC50.
The next series addresses T2, PI4KIIIalpha (Homo sapiens, UniProt P42356).
T2 construct: made in house; host or cells: COS-7 cells, transient transfection, anti-HA immunoprecipitate on protein G Sepharose beads
Briefly: PI-kinase assay, PI4KIIIalpha (Table 4). Format: biochemical. On the procedure:
as §1, §2, §3

Series [7] in a line: Cell toxicity (CC50) in HRV assay. Conditions: human, HRV CC50.
A further series deals with HeLa S3 cells. Briefly: Cell toxicity (CC50) in HRV assay. Conditions: human.
The nature of series [8]: Cell toxicity (CC50) in HPV assay.
Series [9] is described as follows: Cell toxicity (CC50) in JC virus assay.
Series [10] deals with lung cancer cell lines. The experiment in a line: Colony formation in soft agar and on plastic. The format is cell-based, human. Conditions: panel of lung cancer cell lines. On the procedure: (§4) Human lung cancer cells (A549, H1299, H460, H23, H2122, and H3122) were cultured in RPMI 1640 containing 10% FBS. Cells were maintained at 37° C. in an incubator with a humidified atmosphere containing 5% CO2.
(§5) To assess the anti-cancer activity of exemplary PI4K antagonists, a panel of lung cancer cell lines annotated for the presence or absence of PI4K amplifications were treated with PI4K inhibitors (IN-9, TN-10, or compound B) that have greater than 1000-fold selectivity […] PI4KIIIβ over class I and class III PI3K family members. […] IC50 values were even lower with the presence of PI4K amplifications.
(§6) PI4KIIIβ is a target in human cancers, including lung adenocarcinoma. (FIG. 1A). PI4P concentrations in H2122 cells (dots) treated in triplicate (dots) with Compound B or vehicle dimethyl sulfoxide (DMS). (FIG. 1B) Relative densities of PI4-kinase-amplified (red) and -diploid (black) human lung adenocarcinoma cell lines determined by WST-1 assays after 5 days of Compound B treatment. Results expressed relative to the lowest dose, which was set at 100%. (FIG. 1B, right panel) Half maximal inhibitory (IC50) concentrations of compound B determined from FIG. 1B, left panel. (FIG. 1C) Migrated and invaded 1-23 human lung adenocarcinoma cells in Transwell chambers were photographed (images) and counted (bar graphs) after treatment with compound B. Results expressed relative to DMSO-treated cells, which were set at 1.0. (FIG. 1C, right panel). Colonies formed by H2122 human lung cancer cells in soft agarose (FIG. 1D) and on plastic (FIG. 1E) were photographed (images) and counted (bar graphs) after 7 days of treatment with the indicated doses of compound B or vehicle DMSO (0 M). Results expressed relative to DMSO control, which were set at 1.0. PI4-kinase inhibition leads to selective cytotoxicity for cancer cells (FIG. 1F).

The test system of the next series is EV-71 virus. Briefly: Survival of AG129 mice challenged with EV-71. Format: in vivo. Conditions: EV-71 10^6.5 CCID50/mouse i.p., treated b.i.d. for five days per os starting four hours post-infection. The protocol:
FIG. 4 illustrates the survival of four-week-old AG129 mice challenged with EV-71 virus and treated with exemplary Compound B. Groups of eight AG129 nice were challenged with EV-71 at 10^6.5 CCID50/mouse via the i.p. route. Mice were treated b.i.d. for five days per os with doses of Compound B as shown, starting four hours post-infection. Placebo-treated mice received a vehicle control on the same schedule. Mice treated with IVIg, as a positive control, received a single administration of 100 mg/kg via the i.p. route four hours post-infection. […] (*P<0.05, **P<0.01).

Series [11] concerns H2122 human orthotopic lung tumors. The experiment in a line: H2122 human orthotopic lung tumors in nu/nu mice. Format: in vivo. Conditions: 20 or 40 mg/kg plus 20 mg/kg ritonavir, subcutaneously twice daily for three weeks. The protocol: Mice received standard care and were euthanized according to the standards set forth by the Institutional Animal Care and Use Committee. To generate orthotopic lung tumors using human lung adenocarcinoma cell lines, nu/nu mice (n=10 mice per cohort) were subjected to intrathoracic injection with 10^6 human tumor cells, necropsied after a week or more of treatment, and primary tumor size and the number of metastases on the contralateral lung surface measured. […] Drugs were administered subcutaneously twice daily for three weeks. On the last day of treatment, mice were subjected to micro-computed tomography to measure primary tumor size. The following day, mice were necropsied to measure primary tumor size, count metastases to the contralateral lung, and obtain lung tissues for analysis. […] Drugs were administered intraperitoneally twice daily for 8 days. On the last day of treatment, mice were subjected to micro-computed tomography to measure primary tumor size. The following day, mice were necropsied to measure primary tumor size, count metastases to the contralateral lung, and obtain lung tissues.

In series [12] the test system is lung cancer cell lines. The experiment in a line: Cell proliferation in monolayer culture (WST-1). The format is cell-based, human. Conditions: panel of lung cancer cell lines. On the procedure:
as §4, §5, §6
Background: Tetrazolium dyes change colour on reduction, which living cells bring about.

The test system of series [13] is BK virus (Polyomaviridae). Briefly: BK virus antiviral assay (EC50). The format is cell-based. Conditions: Betapolyomavirus hominis.
Series [14] can be described thus: Cell toxicity (CC50) in BK virus assay.
Series [15] concerns lung cancer cell lines. Briefly: PI4P levels in lung cancer cell lines. The format is cell-based, human. Conditions: panel of lung cancer cell lines. On the procedure:
as §4, §5, §6

For series [16], the system named is lung cancer cell lines. Briefly: Migration and invasion in Boyden chambers. Format: cell-based, human. Conditions: panel of lung cancer cell lines. The protocol: as §4, §5, §6

Values joined by “and” are separate entries in the source; they are usually repeats but may differ in a detail not shown here. Equal values may be shown once.

T2 sequence (P42356 whole entry): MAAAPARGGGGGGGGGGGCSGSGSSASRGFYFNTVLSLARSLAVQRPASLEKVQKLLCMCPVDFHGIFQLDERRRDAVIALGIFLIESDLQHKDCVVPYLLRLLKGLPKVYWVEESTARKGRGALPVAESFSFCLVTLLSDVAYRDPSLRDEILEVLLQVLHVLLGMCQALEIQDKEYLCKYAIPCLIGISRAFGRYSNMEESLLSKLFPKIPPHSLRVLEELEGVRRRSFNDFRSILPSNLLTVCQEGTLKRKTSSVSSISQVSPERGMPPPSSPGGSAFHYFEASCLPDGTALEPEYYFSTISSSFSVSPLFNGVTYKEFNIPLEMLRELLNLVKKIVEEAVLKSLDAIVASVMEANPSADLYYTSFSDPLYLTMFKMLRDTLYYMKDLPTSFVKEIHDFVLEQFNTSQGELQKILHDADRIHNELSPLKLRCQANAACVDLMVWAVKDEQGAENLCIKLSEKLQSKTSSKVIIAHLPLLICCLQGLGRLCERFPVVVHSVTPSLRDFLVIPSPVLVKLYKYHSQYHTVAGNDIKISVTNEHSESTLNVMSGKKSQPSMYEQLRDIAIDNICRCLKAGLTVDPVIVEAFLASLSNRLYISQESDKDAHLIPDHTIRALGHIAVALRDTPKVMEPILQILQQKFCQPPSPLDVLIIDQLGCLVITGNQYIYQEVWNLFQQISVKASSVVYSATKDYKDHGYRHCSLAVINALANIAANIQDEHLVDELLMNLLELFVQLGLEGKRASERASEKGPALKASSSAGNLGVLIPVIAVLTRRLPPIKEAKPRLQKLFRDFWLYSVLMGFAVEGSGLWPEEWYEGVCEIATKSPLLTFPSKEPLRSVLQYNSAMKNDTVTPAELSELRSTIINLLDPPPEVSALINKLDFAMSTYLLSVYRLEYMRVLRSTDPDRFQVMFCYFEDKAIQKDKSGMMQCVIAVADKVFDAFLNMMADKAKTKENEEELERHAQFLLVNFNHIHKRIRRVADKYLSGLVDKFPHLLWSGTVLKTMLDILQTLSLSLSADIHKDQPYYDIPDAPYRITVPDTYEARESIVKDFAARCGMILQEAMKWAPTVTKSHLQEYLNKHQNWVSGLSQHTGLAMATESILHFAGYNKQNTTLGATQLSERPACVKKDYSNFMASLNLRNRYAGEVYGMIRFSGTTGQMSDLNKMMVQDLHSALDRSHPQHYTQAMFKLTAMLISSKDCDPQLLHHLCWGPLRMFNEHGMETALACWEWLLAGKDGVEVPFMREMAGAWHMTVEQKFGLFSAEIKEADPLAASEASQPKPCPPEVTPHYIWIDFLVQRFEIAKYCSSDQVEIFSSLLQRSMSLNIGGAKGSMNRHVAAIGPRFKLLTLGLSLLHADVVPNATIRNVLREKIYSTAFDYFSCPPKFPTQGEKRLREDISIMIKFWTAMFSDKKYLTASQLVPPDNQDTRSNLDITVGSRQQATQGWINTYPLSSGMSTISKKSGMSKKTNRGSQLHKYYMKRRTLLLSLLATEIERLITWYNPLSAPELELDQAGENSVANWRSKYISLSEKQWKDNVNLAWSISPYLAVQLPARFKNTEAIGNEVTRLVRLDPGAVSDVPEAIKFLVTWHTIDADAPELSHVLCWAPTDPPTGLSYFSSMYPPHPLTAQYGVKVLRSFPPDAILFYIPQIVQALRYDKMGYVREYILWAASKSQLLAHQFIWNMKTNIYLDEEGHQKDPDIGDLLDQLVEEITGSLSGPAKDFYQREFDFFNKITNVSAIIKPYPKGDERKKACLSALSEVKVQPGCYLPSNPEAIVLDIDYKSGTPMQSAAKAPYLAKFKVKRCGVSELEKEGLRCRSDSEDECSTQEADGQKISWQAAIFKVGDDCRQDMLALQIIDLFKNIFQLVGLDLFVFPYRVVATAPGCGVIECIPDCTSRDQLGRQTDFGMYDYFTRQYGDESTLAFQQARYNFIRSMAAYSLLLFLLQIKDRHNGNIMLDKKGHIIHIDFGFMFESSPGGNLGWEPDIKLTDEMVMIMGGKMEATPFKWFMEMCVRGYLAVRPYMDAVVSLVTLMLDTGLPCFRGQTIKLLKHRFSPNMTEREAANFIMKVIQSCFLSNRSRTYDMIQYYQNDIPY

A word on the EC50: it is the concentration that produces a half-maximal response. In general, CC50 refers to the concentration that lowers cell viability or growth by half. Low values mean greater toxicity to the cells, high ones lower toxicity to the cells. Usually IC50 stands for the point on the concentration scale where inhibition reaches its midpoint. Read a high IC50 as lower potency. Consider `COc1ccc(-c2sc(NC(C)(C)c3ccccn3)nc2C)cc1S(=O)(=O)Nc1c(C)cccc1F` [Compound S-45], for which the half-life in [1] (read-out: HLM/MLM (t ½ min): MLM) is 10 min; in [1] (with ritonavir (concentration not stated), + Ritonavir, read-out: HLM/MLM (t ½ min) + Ritonavir: MLM), 67 min; in series [2] (read-out: HLM/MLM (t ½ min): HLM), 14 min. The EC50 with HRV is 0.0005 µM; in the series with EV68 it was 0.002 µM and 0.0029 µM; with EV71, 0.0003 µM; in the series with HCV, 0.0004 µM; in series [4] it was 4.7 µM; in series [6] it was 5.3 µM. For the same molecule, the “HLM/MLM (t ½ min) + Ritonavir: HLM” value in [2] (+ Ritonavir) is on record as 159 min. The CC50 in series [3] was found to be 73.2 µM; in the series with cells (EV68 assay), 38 µM; in series [5] it was 87.3 µM; in the series with cells (EV71 assay) it was 77 µM; in [7], 66.2 µM; in the series on HeLa S3 cells, 52 µM. The CC50 in [8] is 77 µM; in [9] it was more than 150 µM. Also, the values for the half-maximal inhibitory concentration (IC50) on PI4KIIIbeta and at PI4KIIIalpha were less than 0.1 µM and more than 10 µM, respectively.
Take `COc1ccc(-c2sc(NC(C)C3CCOCC3)nc2C)cc1S(=O)(=O)Nc1ccccc1Cl` (stereo not drawn) [Compound B]: the “colony formation in soft agar and on plastic” value in the series with lung cancer cell lines [10] is on record as “reduced”. Besides, the survival entry in the series with EV-71 virus was “A dose response was observed in survival”. For the same molecule, the metastases result in series [11] was “No metastases were detectable”. For the same molecule, the “sizes of the primary tumors vs vehicle alone” value in [11] is “smaller”. Besides, the “cell proliferation in monolayer culture” value in the series with lung cancer cell lines [12] is “reduced cell proliferation in monolayer culture”. Further, the half-inhibitory concentration (IC50) at PI4KIIIbeta was less than 0.1 µM; at PI4KIIIalpha, more than 10 µM. Moreover, the concentration giving a half-maximal response (EC50) was determined as 0.019 µM in [13] and 2.1 µM in [6]. The 50% cytotoxic concentration (CC50) is more than 100 µM in [14] and 131 µM in series [8]. The PI4P levels result with lung cancer cell lines [15] is “decreased PI4P levels in a dose-dependent fashion”. For the same molecule, the “migration and invasion in Boyden chambers” value in the series with lung cancer cell lines [16] is “reduced”.
With `Nc1ccn(C[C@@H](CO)OCP(=O)(O)O)c(=O)n1` [PC1, cidofovir, reference compound], the half-maximal effective concentration (EC50) was 0.31 µM in series [13] and 29.5 µM in [4]. Also, the figures for the 50% cytotoxic concentration (CC50) in series [14] and in [9] were more than 100 µM and more than 150 µM, respectively.
As to `Nc1nc2c(ncn2CCOCP(=O)(O)O)c(=O)[nH]1` [PC2, 9-[2-(phosphono-methoxy)ethyl]guanine, reference compound], the EC50 in series [6] stood at 2.8 µM. This molecule also yielded a CC50 in [8] of more than 150 µM.

Values taken from US20250326725A1, “PI4-Kinase Inhibitors and Methods of Using the Same” (The Board of Trustees of the Leland Stanford Junior …, priority 2019, published 2025).
